Laboratory results from patent US6706738B2, “Substituted bicyclic heteroaryl compounds and their use as integrin antagonists” (Aventis Pharma Limited, priority 1999, dated 2004).

Which melting point does the source give for `Cc1ccccc1Nc1nc2ccc(CC(=O)Nc3ccc(C(C)CC(=O)O)nc3)cc2o1` (racemic) [Example 1, (3RS)-3-{5-[2-(2-o-Tolylamino-benzoxazol-6-yl)-acetylamino]-pyrid-2-yl}-butyric acid] here?
Its melting point is 195 to 196 °C (dec.).
